Measured values: ChEMBL document CHEMBL4831544, “Discovery of IHMT-EZH2-115 as a Potent and Selective Enhancer of Zeste Homolog 2 (EZH2) Inhibitor for the Treatment of B-Cell Lymphomas” (J Med Chem, 2021)

What was measured:
[1] = Antiproliferative activity against human WSUDLCL2 cells assessed as inhibition of cell growth measured after 6 days by CellTiter-Glo luminescent assay; assay type: functional; settings: WSUDLCL2, 144 h, time 6 day
[2] = Cmax in rat at 1 mg/kg, iv; assay type: ADME, organism-based; set-up: route intravenous, dose 1 mg/kg; settings: in vivo
[3] = Clearance in rat at 1 mg/kg, iv; assay type: ADME, organism-based; settings: in vivo
[4] = Cmax in rat at 10 mg/kg, po; assay type: ADME, organism-based; set-up: route oral, dose 10 mg/kg; settings: in vivo
[5] = Apparent volume of distribution in rat at 10 mg/kg, po; assay type: ADME, organism-based; settings: in vivo
[6] = Clearance in rat at 10 mg/kg, po; assay type: ADME, organism-based; settings: in vivo; for CL: 10 mg/kg
[7] = AUC (0 to infinity) in rat at 1 mg/kg, iv; assay type: ADME, organism-based; set-up: route intravenous, time infinity, dose 1 mg/kg; settings: in vivo
[8] = AUC (0 to infinity) in rat at 10 mg/kg, po; assay type: ADME, organism-based; set-up: time infinity, route oral, dose 10 mg/kg; settings: in vivo
[9] = Oral bioavailability in rat at 10 mg/kg; assay type: ADME, organism-based; settings: in vivo
[10] = Half life in rat at 10 mg/kg, po; assay type: ADME, organism-based; settings: in vivo
[11] = Half life in rat at 1 mg/kg, iv; assay type: ADME, organism-based; settings: in vivo
[12] = Apparent volume of distribution in rat at 1 mg/kg, iv; assay type: ADME, organism-based; settings: in vivo; for Vd: read-out: Vz
SU-DHL-6 = experiment: Antiproliferative activity against human SU-DHL-6 cells harboring EZH2 Y641N mutant assessed as inhibition of cell growth measured after 6 days by CellTiter-Glo luminescent assay; assay type: functional; settings: SU-DHL-6, 144 h, time 6 day
[13] = Toxicity in NCG mouse xenografted with human Pfeiffer cells harboring EZH2 A677G mutant assessed as effect on body weight at 200 mg/kg, po BID via gavage measured after 28 days; assay type: organism-based; settings: in vivo, 672 h, time 28 day
Pfeiffer [14] = experiment: Antiproliferative activity against human Pfeiffer cells harboring EZH2 A677G mutant assessed as inhibition of cell growth measured after 6 days by CellTiter-Glo luminescent assay; assay type: functional; settings: 144 h, time 6 day
Pfeiffer [15] = experiment: Antitumor activity against human Pfeiffer cells harboring EZH2 A677G mutant xenografted in NCG mouse assessed as tumor growth inhibition at 200 mg/kg, po BID via gavage measured after 28 days relative to control; assay type: functional; settings: 672 h, time 28 day, read-out: TGI
[16] = Antiproliferative activity against human WSUDLCL2 cells harboring EZH2 Y641F mutant assessed as inhibition of cell growth measured after 6 days by CellTiter-Glo luminescent assay; assay type: functional; settings: WSUDLCL2, 144 h, time 6 day
SUD4 = experiment: Antiproliferative activity against human SU-DHL-4 cells harboring EZH2 Y641S mutant assessed as inhibition of cell growth measured after 6 days by CellTiter-Glo luminescent assay; assay type: functional; settings: SU-DHL-4, 144 h, time 6 day
KARPAS-422 [17] = experiment: Antiproliferative activity against human KARPAS-422 cells harboring EZH2 Y641N mutant assessed as inhibition of cell growth measured after 6 days by CellTiter-Glo luminescent assay; assay type: functional; settings: KARPAS-422, 144 h, time 6 day
KARPAS-422 [18] = experiment: Antitumor activity against human KARPAS-422 cells harboring EZH2 Y641N mutant xenografted in NCG mouse assessed as change in tumor weight at 200 mg/kg, po BID via gavage measured after 28 days (reference value: 2.14 g); assay type: functional; settings: time 28 day
[19] = Toxicity in NCG mouse xenografted with human KARPAS-422 cells harboring EZH2 Y641N mutant assessed as effect on body weight at 200 mg/kg, po BID via gavage measured after 28 days; assay type: organism-based; settings: in vivo, 672 h, time 28 day
KARPAS-422 [20] = experiment: Antitumor activity against human KARPAS-422 cells harboring EZH2 Y641N mutant xenografted in NCG mouse assessed as tumor growth inhibition at 200 mg/kg, po BID via gavage measured after 28 days relative to control; assay type: functional; settings: KARPAS-422, po, 672 h, time 28 day, read-out: TGI
U2932 = experiment: Antiproliferative activity against human U2932 cells expressing wild type EZH2 assessed as inhibition of cell growth measured after 6 days by CellTiter-Glo luminescent assay; assay type: functional; settings: U2932, 144 h, time 6 day

CCN(C(=O)C1CCCCC1)c1cc(-c2ccc(CN3CCOCC3)cc2)cc(C(=O)NCc2c(C)cc(C)[nH]c2=O)c1C
GI50 [1]: 32400 nM

CCN(C(C)=O)c1cc(-c2ccc(CN3CCOCC3)cc2)cc(C(=O)NCc2c(C)cc(C)[nH]c2=O)c1C
GI50 [1]: 13000 nM

CCN(C(=O)C1CCC1)c1cc(-c2ccc(CN3CCOCC3)cc2)cc(C(=O)NCc2c(C)cc(C)[nH]c2=O)c1C
GI50 [1]: 900 nM

CCN(C(=O)C1CC1)c1cc(-c2ccc(N3CCN(CC4CC4)CC3)nc2)cc(C(=O)NCc2c(C)cc(C)[nH]c2=O)c1C
Cmax [2]: 673 ng/mL | clearance [3]: 60.3 mL/min/kg | Cmax [4]: 67 ng/mL | Vz [5]: 84.455 L/kg | CL/F [6]: 675 mL/min/kg | AUC(0-inf) [7]: 277 ng·h/mL | AUC(0-inf) [8]: 260 ng·h/mL | bioavailability [9]: 9.4% | half-life [10]: 1.46 h | half-life [11]: 1.25 h | GI50 [1]: 200 nM | Vd [12]: 6.5 L/kg

CCN(C(=O)C1CC1)c1cc(-c2ccc(N3CCN(CC4CC4)CC3)cc2)cc(C(=O)NCc2c(C)cc(C)[nH]c2=O)c1C
GI50 [1]: 100 nM

CCN(C(=O)C1CC1)c1cc(-c2cnc(N3CCN(CC4CC4)CC3)c(C)c2)cc(C(=O)NCc2c(C)cc(C)[nH]c2=O)c1C
Cmax [2]: 609 ng/mL | CL ([3]; 1 mg/kg): 60.87 mL/min/kg | Cmax [4]: 42 ng/mL | Vz [5]: 205.232 L/kg | CL [6]: 155.8 mL/min/kg | AUC(0-inf) [7]: 277 ng·h/mL | AUC [8]: 132 ng·h/mL | bioavailability [9]: 4.8% | t1/2 ([10]; 10 mg/kg): 1.82 h | t1/2 ([11]; 1 mg/kg): 1.79 h | GI50 [1]: 300 nM | Vz ([12]; 1 mg/kg): 79.554 L/kg

CCN(C(=O)C1CC1)c1cc(-c2ccc(CN3CCOCC3)cc2)cc(C(=O)NCc2c(C)cc(C)[nH]c2=O)c1C
Cmax [2]: 686 ng/mL | clearance [3]: 69.1 mL/min/kg | Cmax [4]: 106 ng/mL | Vz [5]: 208.585 L/kg | CL/F [6]: 1170 mL/min/kg | AUC(0-inf) [7]: 242 ng·h/mL | AUC(0-inf) [8]: 244 ng·h/mL | bioavailability [9]: 10.1% | half-life [10]: 1.88 h | half-life [11]: 0.8 h | GI50 [1]: 200 nM | Vd [12]: 4.8 L/kg

Cc1cc(C)c(CNC(=O)c2cc(-c3ccc(CN4CCOCC4)cc3)cc3c2CCN3C(=O)C2CC2)c(=O)[nH]1
GI50 [1]: 50500 nM

CCN(C(=O)c1ccccc1)c1cc(-c2ccc(CN3CCOCC3)cc2)cc(C(=O)NCc2c(C)cc(C)[nH]c2=O)c1C
GI50 [1]: 34700 nM

CCN(C(=O)C1CC1)c1cc(-c2ccc(N3CCOCC3)cc2)cc(C(=O)NCc2c(C)cc(C)[nH]c2=O)c1C
GI50 [1]: 200 nM

CCC(=O)N(CC)c1cc(-c2ccc(CN3CCOCC3)cc2)cc(C(=O)NCc2c(C)cc(C)[nH]c2=O)c1C
GI50 [1]: 900 nM

CCN(C(=O)C1CC1)c1cc(-c2ccc(NC(=O)CCN(C)C)cc2)cc(C(=O)NCc2c(C)cc(C)[nH]c2=O)c1C
GI50 [1]: 1800 nM

CCN(C(=O)C1CC1)c1cc(-c2ccc(NC(=O)c3cccnc3)cc2)cc(C(=O)NCc2c(C)cc(C)[nH]c2=O)c1C
GI50 [1]: 800 nM

CCN(C(=O)C(C)C)c1cc(-c2ccc(CN3CCOCC3)cc2)cc(C(=O)NCc2c(C)cc(C)[nH]c2=O)c1C
GI50 [1]: 500 nM

CCN1CCN(c2ccc(-c3cc(C(=O)NCc4c(C)cc(C)[nH]c4=O)c(C)c(N(CC)C(=O)C4CC4)c3)cc2)CC1
Cmax [2]: 444 ng/mL | clearance [3]: 69.9 mL/min/kg | Cmax [4]: 115 ng/mL | Vz [5]: 470.567 L/kg | CL [6]: 1805.68 mL/min/kg | AUC(0-inf) [7]: 241 ng·h/mL | AUC [8]: 242 ng·h/mL | bioavailability [9]: 13% | half-life [10]: 2.08 h | half-life [11]: 1.55 h | GI50 [1]: 200 nM | Vd [12]: 9.32 L/kg

CCN(C(=O)C1CCCC1)c1cc(-c2ccc(CN3CCOCC3)cc2)cc(C(=O)NCc2c(C)cc(C)[nH]c2=O)c1C
Cmax [2]: 824 ng/mL | clearance [3]: 62.7 mL/min/kg | Cmax [4]: 473 ng/mL | Vz [5]: 53.401 L/kg | CL/F [6]: 542 mL/min/kg | AUC(0-inf) [7]: 269 ng·h/mL | AUC(0-inf) [8]: 406 ng·h/mL | bioavailability [9]: 15.1% | half-life [10]: 1.03 h | half-life [11]: 0.38 h | GI50 [1]: 300 nM | Vd [12]: 2.03 L/kg

CCN(c1cc(-c2ccc(CN3CCOCC3)cc2)cc(C(=O)NCc2c(C)cc(C)[nH]c2=O)c1C)C1CCOCC1 [TAZEMETOSTAT]
GI50 (SU-DHL-6): 1050 nM | Activity [13]: Non-Toxic | GI50 (Pfeiffer [14]): 2 nM | inhibition in vivo at 200 mg/kg (Pfeiffer [15]): 100% | GI50 [16]: 80 nM | GI50 (SUD4): 3390 nM | GI50 (KARPAS-422 [17]): 90 nM | Activity (KARPAS-422 [18]): 0.23 g | Activity [19]: Non-Toxic | inhibition in vivo at 200 mg/kg (KARPAS-422 [20]): 89.3% | GI50 [1]: 300 nM | GI50 (U2932): > 10000 nM

CCN(C(=O)C1CC1)c1cc(-c2ccc(NC(=O)C3CCOCC3)cc2)cc(C(=O)NCc2c(C)cc(C)[nH]c2=O)c1C
GI50 [1]: 700 nM

CCN(C(=O)C1CCOCC1)c1cc(-c2ccc(CN3CCOCC3)cc2)cc(C(=O)NCc2c(C)cc(C)[nH]c2=O)c1C
GI50 [1]: 16200 nM

Cc1cc(C)c(CNC(=O)c2cc(-c3ccc(CN4CCOCC4)cc3)cc3c2CCN3C(=O)c2ccco2)c(=O)[nH]1
GI50 [1]: 51600 nM

Cc1cc(C)c(CNC(=O)c2cc(-c3ccc(CN4CCOCC4)cc3)cc3c2CCN3C(=O)C2CCCC2)c(=O)[nH]1
GI50 [1]: 44000 nM

CC[C@H](C)n1cc(C)c2c(C(=O)NCc3c(C)cc(C)[nH]c3=O)cc(-c3ccc(N4CCNCC4)nc3)cc21 [GSK2816126]
GI50 [1]: 5000 nM

Cc1cc(C)c(CNC(=O)c2cc(-c3ccc(CN4CCOCC4)cc3)cc3c2CCN3C(=O)C2CCOCC2)c(=O)[nH]1
GI50 [1]: 94500 nM

CCN(C(=O)C1CC1)c1cc(-c2cnc(N3CCN(CC4CC4)CC3)cc2C)cc(C(=O)NCc2c(C)cc(C)[nH]c2=O)c1C
GI50 [1]: 200 nM

CCN(C(=O)C1CC1)c1cc(-c2ccc(N)cc2)cc(C(=O)NCc2c(C)cc(C)[nH]c2=O)c1C
GI50 [1]: 800 nM

CCN(C(=O)C1CC1)c1cc(-c2ccc(N3CCNCC3)cc2)cc(C(=O)NCc2c(C)cc(C)[nH]c2=O)c1C
GI50 [1]: 200 nM

CCN(C(=O)C1CC1)c1cc(-c2ccc(NC(=O)c3cccs3)cc2)cc(C(=O)NCc2c(C)cc(C)[nH]c2=O)c1C
GI50 [1]: 900 nM
